Data from the NIST ThermoML archive (doi:10.1016/j.jct.2009.06.011).
± gives the expanded uncertainty stated by the source.

Experiment: activity coefficient (dimensionless); of the first substance listed, at infinite dilution; xn = mol fraction of the nth substance listed
Conditions: 101 kPa, Liquid, Chromatography, x1 = 0

| Structure (SMILES) | activity coefficient (298.15 K) | activity coefficient (308.15 K) | activity coefficient (318.15 K) | activity coefficient (328.15 K) | activity coefficient (338.15 K) | activity coefficient (348.15 K) | activity coefficient (358.15 K) | activity coefficient (368.15 K) |
| --- | --- | --- | --- | --- | --- | --- | --- | --- |
| C=CCCCCCC [oct-1-ene] + CCCC[n+]1ccc(C)cc1.O=S(=O)([N-]S(=O)(=O)C(F)(F)F)C(F)(F)F | 13.8 ± 0.9 | 13 ± 0.9 | 12.4 ± 0.8 | 11.8 ± 0.8 | 11.3 ± 0.8 | 10.9 ± 0.7 | 10.4 ± 0.7 | 10.1 ± 0.7 |
| CCCCCCCC [octane] + CCCC[n+]1ccc(C)cc1.O=S(=O)([N-]S(=O)(=O)C(F)(F)F)C(F)(F)F | 27.9 ± 1.9 | 25.8 ± 1.8 | 23.7 ± 1.6 | 22.1 ± 1.5 | 20.7 ± 1.4 | 19.3 ± 1.3 | 18.1 ± 1.2 | 17.2 ± 1.2 |
| CCCCC [pentane] + CCCC[n+]1ccc(C)cc1.O=S(=O)([N-]S(=O)(=O)C(F)(F)F)C(F)(F)F | 12.9 ± 0.9 | 12 ± 0.8 | 11.2 ± 0.8 | 10.5 ± 0.7 | 9.89 ± 0.67 | 9.37 ± 0.64 | 8.88 ± 0.61 | 8.47 ± 0.58 |
| CCCO [propan-1-ol] + CCCC[n+]1ccc(C)cc1.O=S(=O)([N-]S(=O)(=O)C(F)(F)F)C(F)(F)F | 2.28 ± 0.16 | 2.04 ± 0.14 | 1.84 ± 0.12 | 1.67 ± 0.11 | 1.53 ± 0.1 | 1.41 ± 0.09 | 1.3 ± 0.08 | 1.2 ± 0.08 |
| C1CCOC1 [tetrahydrofuran] + CCCC[n+]1ccc(C)cc1.O=S(=O)([N-]S(=O)(=O)C(F)(F)F)C(F)(F)F | 0.617 ± 0.043 | 0.63 ± 0.044 | 0.641 ± 0.044 | 0.653 ± 0.045 | 0.663 ± 0.045 | 0.673 ± 0.046 | 0.683 ± 0.046 | 0.693 ± 0.047 |
| c1ccsc1 [thiophene] + CCCC[n+]1ccc(C)cc1.O=S(=O)([N-]S(=O)(=O)C(F)(F)F)C(F)(F)F | 0.609 ± 0.043 | 0.624 ± 0.043 | 0.637 ± 0.044 | 0.649 ± 0.044 | 0.661 ± 0.045 | 0.672 ± 0.046 | 0.683 ± 0.046 | 0.694 ± 0.047 |
| Cc1ccccc1 [toluene] + CCCC[n+]1ccc(C)cc1.O=S(=O)([N-]S(=O)(=O)C(F)(F)F)C(F)(F)F | – | – | 0.973 ± 0.061 | 1 ± 0.063 | 1.02 ± 0.064 | 1.05 ± 0.066 | 1.07 ± 0.067 | 1.09 ± 0.069 |
| O [water] + CCCC[n+]1ccc(C)cc1.O=S(=O)([N-]S(=O)(=O)C(F)(F)F)C(F)(F)F | 4.86 ± 0.33 | 4.2 ± 0.29 | 3.65 ± 0.25 | 3.21 ± 0.22 | 2.85 ± 0.19 | 2.54 ± 0.17 | 2.26 ± 0.15 | 2.05 ± 0.14 |
